In patent publication US12723063B2, “GIPR-agonist compounds” (Eli Lilly and Company, priority 2019, dated 2026):
*1 amine or outer side, *2 acyl side, *3 side chain or, on linkers, in order; H or OH if unused. Where a SMILES comes first, the peptide text is derived from it. Side-chain parts run from the residue outwards. [ ]: non-standard residue; d: D form. The star is where a group is joined. C20 diacid = O=C(O)CCCCCCCCCCCCCCCCCCC(=O)*; C18 diacid = O=C(O)CCCCCCCCCCCCCCCCC(=O)*; γGlu = O=C(O)[C@H](CCC(=O)[*:2])N[*:1]; 4Pal = N[C@@H](Cc1ccncc1)C(=O)O; αMeL = CC(C)C[C@](C)(N)C(=O)O; AEEA = NCCOCCOCC(=O)O; Aib = CC(C)(N)C(=O)O

Assays:
human GIPR = target: T1, human GIPR (Homo sapiens, UniProt P48546); experiment: [125I]-GIP binding, SPA with WGA beads, 0.1% bacitracin; conditions: geometric mean, read-out: hGIPR Ki
T1 construct: expressed in transfected cells; crude membranes
T1 sequence (P48546 22-466): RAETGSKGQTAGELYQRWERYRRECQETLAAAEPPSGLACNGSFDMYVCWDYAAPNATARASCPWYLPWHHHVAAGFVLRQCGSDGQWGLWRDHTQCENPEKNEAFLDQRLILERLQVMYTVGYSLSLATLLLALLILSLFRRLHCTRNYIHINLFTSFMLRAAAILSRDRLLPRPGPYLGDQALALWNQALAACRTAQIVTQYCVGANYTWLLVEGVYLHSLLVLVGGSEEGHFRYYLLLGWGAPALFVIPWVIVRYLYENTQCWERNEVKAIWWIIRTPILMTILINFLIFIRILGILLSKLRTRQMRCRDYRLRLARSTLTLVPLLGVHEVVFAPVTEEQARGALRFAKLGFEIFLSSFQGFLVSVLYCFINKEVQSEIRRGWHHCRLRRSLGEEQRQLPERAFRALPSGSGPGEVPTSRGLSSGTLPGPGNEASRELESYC
Procedure: Stably transfected cell lines are prepared by subcloning receptor cDNA into a pcDNA3 expression plasmid and transfected into human embryonic kidney (HEK) 293 (hGcgR and hGLP-1R) or Chinese Hamster Ovary (CHO) (hGIPR) cells followed by selection with Geneticin (hGLP-1R and hGIPR) or hygromycin B (hGcgR).
Two methods are used for the preparation of crude cell membranes.
Method 1: Frozen cell pellets are lysed on ice in hypotonic buffer containing 50 mM Tris HCl, pH 7.5, and Roche Complete™ Protease Inhibitors with EDTA. The cell suspension is disrupted using a glass Potter-Elvehjem homogenizer fitted with a Teflon® pestle for 25 strokes. The homogenate is centrifuged at 4° C. at 1100× g for 10 minutes. The supernatant is collected and stored on ice while the pellets are resuspended in homogenization buffer and rehomogenized as described above. The homogenate is centrifuged at 1100× g for 10 minutes. The second supernatant is combined with the first supernatant and centrifuged at 35000× g for 1 hour at 4° C. The resulting membrane pellet is resuspended in homogenization buffer containing protease inhibitors at approximately 1 to 3 mg/mL, quick frozen in liquid nitrogen and stored as aliquots in a −80° C. freezer until use.
Method 2: Frozen cell pellets are lysed on ice in hypotonic buffer containing 50 mM Tris HCl, pH 7.5, 1 mM MgCl2, Roche Complete™ EDTA-free Protease Inhibitors and 25 units/mL DNAse I (Invitrogen). The cell suspension is disrupted using a glass Potter-Elvehjem homogenizer fitted with a Teflon® pestle for 20 to 25 strokes. The homogenate is centrifuged at 4° C. at 1800× g for 15 minutes. The supernatant is collected and stored on ice while the pellets are resuspended in homogenization buffer (without DNAse I) and rehomogenized as described above. The homogenate is centrifuged at 1800× g for 15 minutes. The second supernatant is combined with the first supernatant and centrifuged an additional time at 1800× g for 15 minutes. The overall supernatant is then centrifuged at 25000× g for 30 minutes at 4° C. The resulting membrane pellet is resuspended in homogenization buffer (without DNAse I) containing protease inhibitors at approximately 1 to 3 mg/mL and stored as aliquots in a −80° C. freezer until use.
The binding buffer contains 25 mM HEPES, pH 7.4, 2.5 mM CaCl2), 1 mM MgCl2, 0.1% (w/v) bacitracin, 0.003% (w/v) TWEEN®-20, and Roche Complete™ Protease Inhibitors without EDTA. […] Plates are sealed and mixed on a plate shaker (setting 6) for 1 minute and read with a PerkinElmer Trilux MicroBeta® scintillation counter after 2.5 to 12 hours of incubation/settling time at room temperature.
Data are analyzed using four-parameter (curve maximum, curve minimum, IC50, Hill slope) nonlinear regression routines (Genedata Screener, version 12.0.4, Genedata AG, Basal, Switzerland). […] Values for Ki are reported as the geometric mean, with error expressed as the standard error of the mean (SEM) and n is equal to the number of independent replicates (determined in assays performed on different days). […] SEM is only calculated when […] or greater. Means are expressed as geometric means with the standard error of the mean (SEM) and the number of replicates (n) indicated in parentheses.

[1] = target: T2, human glucose-dependent insulinotropic peptide receptor (GIPR) (Homo sapiens, UniProt P48546); experiment: cAMP functional assay (HTRF) in HEK293 cells in presence of 0.1% casein; assay type: cell-based; conditions: HEK293 cells expressing human GIPR, geometric mean, read-out: hGIPR cAMP Rel EC50 nM (SEM, n)
T2 construct: expressed in transfected cells; host or cells: HEK293
T2 sequence (P48546 22-466): T1 sequence (P48546 22-466)

SMILES | Ki (human GIPR) | EC50 [1]
CC[C@H](C)[C@H](NC(=O)[C@H](CO)NC(=O)[C@H](Cc1ccc(O)cc1)NC(=O)[C@H](CC(=O)O)NC(=O)[C@H](CO)NC(=O)[C@@H](NC(=O)[C@H](Cc1ccccc1)NC(=O)[C@@H](NC(=O)CNC(=O)[C@H](CCC(=O)O)NC(=O)[C@@H](C)NC(=O)[C@@H](N)Cc1ccc(O)cc1)[C@@H](C)O)[C@@H](C)CC)C(=O)N[C@@H](CC(C)C)C(=O)N[C@@H](CC(C)C)C(=O)N[C@@H](CC(=O)O)C(=O)N[C@@H](CCCCN)C(=O)N[C@@H](CCCCNC(=O)COCCOCCNC(=O)COCCOCCNC(=O)CC[C@H](NC(=O)CCCCCCCCCCCCCCCCCCC(=O)O)C(=O)O)C(=O)N[C@@H](Cc1c[nH]cn1)C(=O)N[C@@H](CCC(N)=O)C(=O)N[C@@H](CCC(N)=O)C(=O)N[C@@H](CC(=O)O)C(=O)N[C@@H](Cc1ccccc1)C(=O)N[C@H](C(=O)N[C@@H](CCC(=O)O)C(=O)N[C@@H](Cc1c[nH]c2ccccc12)C(=O)N[C@@H](CC(C)C)C(=O)N[C@@H](CC(C)C)C(=O)N[C@@H](C)C(=O)N[C@@H](CCC(N)=O)C(=O)NCC(=O)N1CCC[C@H]1C(=O)N[C@@H](CO)C(=O)N[C@@H](CO)C(=O)NCC(=O)N[C@@H](C)C(=O)N1CCC[C@H]1C(=O)N1CCC[C@H]1C(=O)N1CCC[C@H]1C(=O)N[C@@H](CO)C(N)=O)C(C)C [Example 14] (H-Y[dA]EGTFISDYSILLDKK([AEEA-AEEA-γGlu-C20 diacid])HQQDFVEWLLAQGPSSGAPPPS-NH2) | 0.46 nM | 0.34 nM
CC[C@H](C)[C@H](NC(=O)[C@H](Cc1ccccc1)NC(=O)[C@@H](NC(=O)CNC(=O)[C@H](CCC(=O)O)NC(=O)C(C)(C)NC(=O)[C@@H](N)Cc1ccc(O)cc1)[C@@H](C)O)C(=O)N[C@@H](CO)C(=O)N[C@@H](CC(=O)O)C(=O)N[C@@H](Cc1ccc(O)cc1)C(=O)N[C@@H](CO)C(=O)N[C@H](C(=O)N[C@@](C)(CC(C)C)C(=O)N[C@@H](CC(C)C)C(=O)N[C@@H](CC(=O)O)C(=O)N[C@@H](CCCCN)C(=O)N[C@@H](CCCCNC(=O)COCCOCCNC(=O)COCCOCCNC(=O)CC[C@H](NC(=O)CCCCCCCCCCCCCCCCCCC(=O)O)C(=O)O)C(=O)N[C@@H](Cc1c[nH]cn1)C(=O)N[C@@H](CCC(N)=O)C(=O)NC(C)(C)C(=O)N[C@@H](CC(=O)O)C(=O)N[C@@H](Cc1ccccc1)C(=O)N[C@H](C(=O)N[C@@H](CCC(=O)O)C(=O)N[C@@H](Cc1ccncc1)C(=O)N[C@@H](CC(C)C)C(=O)N[C@@H](CC(C)C)C(=O)N[C@@H](CCC(=O)O)C(=O)N[C@@H](C)C(=O)NCC(=O)N1CCC[C@H]1C(=O)N[C@@H](CO)C(=O)N[C@@H](CO)C(=O)NCC(=O)N[C@@H](C)C(=O)N1CCC[C@H]1C(=O)N1CCC[C@H]1C(=O)N1CCC[C@H]1C(=O)N[C@@H](CO)C(N)=O)C(C)C)[C@@H](C)CC [Example 3] | 0.0525 nM | 0.0178 nM
CC[C@H](C)[C@H](NC(=O)[C@H](CCCCN)NC(=O)[C@H](CC(=O)O)NC(=O)[C@H](CC(C)C)NC(=O)[C@](C)(CC(C)C)NC(=O)[C@@H](NC(=O)[C@H](CO)NC(=O)[C@H](Cc1ccc(O)cc1)NC(=O)[C@H](CC(=O)O)NC(=O)[C@H](CO)NC(=O)[C@@H](NC(=O)[C@H](Cc1ccccc1)NC(=O)[C@@H](NC(=O)CNC(=O)[C@H](CCC(=O)O)NC(=O)C(C)(C)NC(=O)[C@@H](N)Cc1ccc(O)cc1)[C@@H](C)O)[C@@H](C)CC)[C@@H](C)CC)C(=O)N[C@@H](Cc1c[nH]cn1)C(=O)N[C@@H](CCC(N)=O)C(=O)NC(C)(C)C(=O)N[C@@H](CC(=O)O)C(=O)N[C@@H](Cc1ccccc1)C(=O)N[C@H](C(=O)N[C@@H](CCC(=O)O)C(=O)N[C@@H](Cc1ccncc1)C(=O)N[C@@H](CCCCNC(=O)COCCOCCNC(=O)COCCOCCNC(=O)CC[C@H](NC(=O)CCCCCCCCCCCCCCCCCCC(=O)O)C(=O)O)C(=O)N[C@@H](CC(C)C)C(=O)N[C@@H](CCC(=O)O)C(=O)NCC(=O)NCC(=O)N1CCC[C@H]1C(=O)N[C@@H](CO)C(=O)N[C@@H](CO)C(=O)NCC(=O)N[C@@H](C)C(=O)N1CCC[C@H]1C(=O)N1CCC[C@H]1C(=O)N1CCC[C@H]1C(=O)N[C@@H](CO)C(N)=O)C(C)C [Example 109] (H-Y[Aib]EGTFISDYSI[αMeL]LDKIHQ[Aib]DFVE[4Pal]K([AEEA-AEEA-γGlu-C20 diacid])LEGGPSSGAPPPS-NH2) | 0.117 nM | 0.0113 nM
CC[C@H](C)[C@H](NC(=O)[C@H](CO)NC(=O)[C@H](Cc1ccc(O)cc1)NC(=O)[C@H](CC(=O)O)NC(=O)[C@H](CO)NC(=O)[C@@H](NC(=O)[C@H](Cc1ccccc1)NC(=O)[C@@H](NC(=O)CNC(=O)[C@H](CCC(=O)O)NC(=O)C(C)(C)NC(=O)[C@@H](N)Cc1ccc(O)cc1)[C@@H](C)O)[C@@H](C)CC)C(=O)N[C@@H](CC(C)C)C(=O)N[C@@H](CC(C)C)C(=O)N[C@@H](CC(=O)O)C(=O)N[C@@H](CCCCN)C(=O)N[C@@H](CCCCNC(=O)COCCOCCNC(=O)COCCOCCNC(=O)CC[C@H](NC(=O)CCCCCCCCCCCCCCCCC(=O)O)C(=O)O)C(=O)N[C@@H](Cc1c[nH]cn1)C(=O)N[C@@H](CCC(N)=O)C(=O)NC(C)(C)C(=O)N[C@@H](CC(=O)O)C(=O)N[C@@H](Cc1ccccc1)C(=O)N[C@H](C(=O)N[C@@H](CC(N)=O)C(=O)N[C@@H](Cc1ccc(O)cc1)C(=O)N[C@@H](CC(C)C)C(=O)N[C@@H](CC(C)C)C(=O)N[C@@H](C)C(=O)N[C@@H](C)C(=O)NCC(=O)N1CCC[C@H]1C(=O)N[C@@H](CO)C(=O)N[C@@H](CO)C(=O)NCC(=O)N[C@@H](C)C(=O)N1CCC[C@H]1C(=O)N1CCC[C@H]1C(=O)N1CCC[C@H]1C(=O)N[C@@H](CO)C(N)=O)C(C)C [Example 31] (H-Y[Aib]EGTFISDYSILLDKK([AEEA-AEEA-γGlu-C18 diacid])HQ[Aib]DFVNYLLAAGPSSGAPPPS-NH2) | 0.0473 nM | 0.0148 nM
CC[C@H](C)[C@H](NC(=O)[C@H](CO)NC(=O)[C@H](Cc1ccc(O)cc1)NC(=O)[C@H](CC(=O)O)NC(=O)[C@H](CO)NC(=O)[C@@H](NC(=O)[C@H](Cc1ccccc1)NC(=O)[C@@H](NC(=O)CNC(=O)[C@H](CCC(=O)O)NC(=O)[C@@H](C)NC(=O)[C@@H](N)Cc1ccc(O)cc1)[C@@H](C)O)[C@@H](C)CC)C(=O)N[C@@H](CC(C)C)C(=O)N[C@@H](CC(C)C)C(=O)N[C@@H](CC(=O)O)C(=O)N[C@@H](CCCCN)C(=O)N[C@@H](CCCCNC(=O)COCCOCCNC(=O)COCCOCCNC(=O)CC[C@H](NC(=O)CCCCCCCCCCCCCCCCC(=O)O)C(=O)O)C(=O)N[C@@H](C)C(=O)N[C@@H](CCC(N)=O)C(=O)NC(C)(C)C(=O)N[C@@H](CC(=O)O)C(=O)N[C@@H](Cc1ccccc1)C(=O)N[C@H](C(=O)N[C@@H](CC(N)=O)C(=O)N[C@@H](Cc1c[nH]c2ccccc12)C(=O)N[C@@H](CC(C)C)C(=O)N[C@@H](CC(C)C)C(=O)N[C@@H](C)C(=O)N[C@@H](CCC(N)=O)C(=O)NCC(=O)N1CCC[C@H]1C(=O)N[C@@H](CO)C(=O)N[C@@H](CO)C(=O)NCC(=O)N[C@@H](C)C(=O)N1CCC[C@H]1C(=O)N1CCC[C@H]1C(=O)N1CCC[C@H]1C(=O)N[C@@H](CO)C(N)=O)C(C)C [Example 2] | 0.0373 nM | 0.0123 nM
